Experimental findings from US9982073B2, “Homopolymers of terpenoid alcohols and their uses” (priority 2015, dated 2018) are described below.

Broadly, the zone of inhibition is the size of the clear area around the sample on an inoculated plate.

Format in all cases: cell-based
One experiment deals with Aspergillus niger. Briefly: Disk inhibition testing, A. niger. To be noted: 48 hours at 25° C. The protocol: (§1) Fungal broths of Aspergillus fumigatus and Aspergillus niger were prepared in a tissue culture hood by transferring the frozen stock culture (−70° C. freezer) of the given fungi to a plate of Sabourad Dextrose Agar. The A. fumigatus culture plates were incubated for 48 hours at 37° C. and the A. niger culture plates were incubated for 72 hours at 25° C. The fungal broth was prepared by using a cork borer to add 2-3 circular pieces of agar containing active fungal growth to distilled water (4.0 mL). A tissue homogenizer was then used to grind the agar and create a suspension of fungal spores.
(§2) Each sample (˜15 mg) was dissolved in a solvent (3.000 mL of tetrahydrofuran or 3.000 mL distilled water) depending on the sample's solubility. The sample (20 μL of sample solution or 100 μg of sample was then transferred to a sterile filter paper disk. The disk was then allowed to dry so that all solvent was evaporated and 100 μg of sample remained on the disk. […]
(§3) The C. albicans and A. fumigfatus plates were incubated for 24 hours at 37° C., the A. niger plates were incubated for 48 hours at 25° C. and the S. cerevisiae plates were incubated for 24 hours at 30° C. […] Where a zone of growth inhibition was observed, the diameter of the ring was measured to the closest 0.1 mm using a caliper. […]

A further experiment concerns Saccharomyces cerevisiae. Kind of experiment: Disk inhibition testing, S. cerevisiae. To be noted: 24 hours at 30° C.; for zone of inhibition at 100 µg/disc: Saccharomyces cerevisiae, 100 μg sample per disk, NI = no inhibition, read-out: Diameter of zone of growth inhibition, S. Cerevisiae. The method, then: (§4) Plates of Sabourad Dextrose Agar (Difco) and tubes of Malt Extract Broth (20 mL/tube) were prepared according to manufacturer direction using aseptic techniques. Fungal broths of Saccharomyces cerevisiae and Candida albicans were prepared in a tissue culture hood by transferring frozen stock culture (−70° C. freezer, prepared from ATCC bought strains) of the given fungi to the broth tube. The S. cerevisiae culture tubes were incubated for 48 hours at 30° C. and the C. albicans culture tubes were incubated for 48 hours at 37° C.
(§5) Each sample (˜15 mg) was dissolved in a solvent (3.000 mL of tetrahydrofuran or 3.000 mL distilled water) depending on the sample's solubility. The sample (20 μL of sample solution or 100 μg of sample was then transferred to a sterile filter paper disk. The disk was then allowed to dry so that all solvent was evaporated and 100 μg of sample remained on the disk.
Plates of Sabourad Dextrose Agar (Difco) were prepared according to manufacture directions using aseptic techniques. The fungal agar plates were prepared using the culture broth of S. cerevisiae, C. albicans, A. fumigatus or A. niger as prepared above after the incubation period. In a tissue culture hood, the fungal culture broth solution (200 μL) was transferred to each Sabourad Dextrose Agar plate and spread evenly over the agar and allowed to dry for a minimum of 20 minutes. Four sample disks or control antifungal disks were then places onto each agar plate, one in the center of each quadrant of the plate. The sample disks were prepared as described above and the antifungal disks were pre-made disks of 20 μg of amphotericin B.
The C. albicans and A. fumigfatus plates were incubated for 24 hours at 37° C., the A. niger plates were incubated for 48 hours at 25° C. and the S. cerevisiae plates were incubated for 24 hours at 30° C. The plates were then observed for zones of fungal growth inhibition. Where a zone of growth inhibition was observed, the diameter of the ring was measured to the closest 0.1 mm using a caliper. […]

The test system of the next experiment is Candida albicans. Briefly: Disk inhibition testing, C. albicans. To be noted: 24 hours at 37° C. The protocol: as §4, §5
Plates of Sabourad Dextrose Agar (Difco) were prepared according to manufacture directions using aseptic techniques. […]
as §3

The subject of another experiment is Aspergillus fumigatus. Briefly: Disk inhibition testing, A. fumigatus. To be noted: pre-made antifungal disk 20 μg; 24 hours at 37° C. The method, then:
as §1, §2, §3

The subject of a further experiment is Escherichia coli. Kind of experiment: Disk inhibition testing, E. coli. The following applies: 24 hours at 37° C.; for zone of inhibition at 100 µg/disc: Escherichia coli, 100 μg sample per disk, NI = no inhibition, read-out: Diameter of zone of growth inhibition, E. Coli. The method, then:
(§6) Tubes of Tryptic Soy Broth (10 mL/tube,) were prepared according to manufacturer directions (Difco) using aseptic techniques. Bacterial broth of Escherichia coli, Staphylococcus aureus, Pseudomonas aeruginosa, Proteus hauseri, and Bacillus cereus were prepared in a tissue culture hood by transferring frozen stock culture (−70° C. freezer, prepared from ATCC bacterial quality control strains) of the given bacteria to the broth tube. The E. coli, S. aureus, P. aeruginosa, and P. hauseri culture tubes were then incubated for 24 hours at 37° C. and the B. cereus culture tubes were incubated at 30° C. for 24 hours.
as §5
(§7) Plates of Mueller Hinton II Agar (Difco) were prepared according to manufacturer directions using aseptic techniques. The bacterial agar plates were prepared using the bacterial culture broth of E. coli, S. aureus, P. aeruginosa, P. hauseri, or B. cereus as prepared above after the incubation period. In a tissue culture hood, the given bacterial culture broth solution (300 μL) was transferred to each Mueller Hinton Agar II plate and spread evenly over the agar and allowed to dry for a minimum of 20 minutes. Four sample disks (as prepared above) or control antibiotic disks (pre-made disks) were then places onto each agar plate, one in the center of each quadrant of the plate.
(§8) The E. coli, S. aureus, P. aeruginosa, and P. hauseri, plates were incubated for 24 hours at 37° C. and the B. cereus plates were incubated for 24 hours at 30° C. The plates were then observed for zones of bacterial growth inhibition. Where a zone of growth inhibition was observed, the diameter of the ring was measured to the closest 0.1 mm using a caliper. […] The absence of a uniform bacterial lawn was ruled a failed test and in this case the test would need to be repeated in order to achieve meaningful results.

For the next experiment, the system named is Pseudomonas aeruginosa. Briefly: Disk inhibition testing, P. aeruginosa. To be noted: 24 hours at 37° C. The method, then:
as §6, §5, §7, §8

The test system of another experiment is Proteus hauseri. Briefly: Disk inhibition testing, P. hauseri. The following applies: 24 hours at 37° C.; for zone of inhibition at 100 µg/disc: Proteus hauseri, 100 μg sample per disk, NI = no inhibition, read-out: Diameter of zone of growth inhibition, P. Hauseri. The method, then:
as §6, §5, §7, §8

The subject of another experiment is Staphylococcus aureus. Briefly: Disk inhibition testing, S. aureus. To be noted: 24 hours at 37° C.; for zone of inhibition at 100 µg/disc: Staphylococcus aureus, 100 μg sample per disk, NI = no inhibition, read-out: Diameter of zone of growth inhibition, S. Aureus. The method, then: as §6, §5, §7, §8
The next experiment has as its system Bacillus cereus. Briefly: Disk inhibition testing, B. cereus. The following applies: pre-made control disk 30 μg; 24 hours at 30° C. The protocol:
as §6, §5
Plates of Mueller Hinton II Agar (Difco) were prepared according to manufacturer directions using aseptic techniques. […]
The E. coli, S. aureus, P. aeruginosa, and P. hauseri, plates were incubated for 24 hours at 37° C. and the B. cereus plates were incubated for 24 hours at 30° C. […] Where a zone of growth inhibition was observed, the diameter of the ring was measured to the closest 0.1 mm using a caliper. […]

In the case of `C[C@@H]1[C@H](O)[C@@H](C)/C=C/C=C/C=C/C=C/C=C/C=C/C=C/[C@H](O[C@@H]2O[C@H](C)[C@@H](O)[C@H](N)[C@@H]2O)C[C@@H]2O[C@](O)(C[C@@H](O)C[C@@H](O)[C@H](O)CC[C@@H](O)C[C@@H](O)CC(=O)O[C@H]1C)C[C@H](O)[C@H]2C(=O)O` [Amphotericin B, amphotericin B], the “Diameter of zone of growth inhibition, A. Niger” value in the experiment with Aspergillus niger (pre-made antifungal disk 20 μg) amounted to 9.7 mm. In addition, the “Diameter of zone of growth inhibition, S. Cerevisiae” value with Saccharomyces cerevisiae (pre-made antifungal disk 20 μg) is 10.2 mm. In the experiment with Candida albicans (pre-made antifungal disk 20 μg), the “Diameter of zone of growth inhibition, C. Albicans” value was determined as 12.9 mm. Moreover, in the experiment on Aspergillus fumigatus, the “Diameter of zone of growth inhibition, A. Fumigratus” value turned out to be 11.4 mm.
On to `CC1(C)S[C@@H]2[C@H](NC(=O)[C@H](N)c3ccccc3)C(=O)N2[C@H]1C(=O)O` [Ampicillin], for which the “Diameter of zone of growth inhibition, E. Coli” value in the experiment with Escherichia coli (pre-made control disk 10 μg) is 19.7 mm. Also, in the experiment on Pseudomonas aeruginosa (pre-made control disk 10 μg, NI = no inhibition), the “Diameter of zone of growth inhibition, P. Aeriginosa” value was found to be 9.1 mm. The “Diameter of zone of growth inhibition, P. Hauseri” value in the experiment on Proteus hauseri (pre-made control disk 10 μg) turned out to be 7.2 mm.
`O=C(N[C@H](CO)[C@H](O)c1ccc([N+](=O)[O-])cc1)C(Cl)Cl` [Chloramphenicol]: the “Diameter of zone of growth inhibition, E. Coli” value in the experiment on Escherichia coli (pre-made control disk 30 μg) came to 24.4 mm. In addition, the “Diameter of zone of growth inhibition, S. Aureus” value in the experiment on Staphylococcus aureus (pre-made control disk 30 μg) was 17.8 mm. The “Diameter of zone of growth inhibition, P. Aeriginosa” value with Pseudomonas aeruginosa (pre-made control disk 30 μg) was 18.7 mm. In addition, in the experiment on Proteus hauseri (pre-made control disk 30 μg), the “Diameter of zone of growth inhibition, P. Hauseri” value is reported as 16.7 mm. Further, the “Diameter of zone of growth inhibition, B. Cereus” value with Bacillus cereus is given as 15.7 mm.
`CC(C)=CCCC(C)CCO` (centres unmarked) [Citronellol]: the zone of inhibition at 100 µg/disc came out at 8.7 mm with Escherichia coli, 5.4 mm in the experiment with Staphylococcus aureus, 8.8 mm in the experiment with Proteus hauseri and 6.7 mm in the experiment with Saccharomyces cerevisiae.
On to `CC(C)=CCC/C(C)=C/CO` [Geraniol], for which the zone of inhibition at 100 µg/disc was found to be 8.5 mm with Escherichia coli; 4.7 mm in the experiment on Staphylococcus aureus; 9.3 mm with Proteus hauseri; 8.1 mm in the experiment on Aspergillus niger (Aspergillus niger, 100 μg sample per disk, NI = no inhibition, read-out: Diameter of zone of growth inhibition, A. Niger); 8.3 mm with Candida albicans (Candida albicans, 100 μg sample per disk, NI = no inhibition, read-out: Diameter of zone of growth inhibition, C. Albicans).
Regarding `C=CC(C)(O)CCC=C(C)C` (centres unmarked) [Linalool], the zone of inhibition at 100 µg/disc with Escherichia coli was found to be 7.2 mm; with Pseudomonas aeruginosa (Pseudomonas aeruginosa, 100 μg sample per disk, NI = no inhibition, read-out: Diameter of zone of growth inhibition, P. Aeriginosa), 7.1 mm; in the experiment on Saccharomyces cerevisiae, 7.3 mm.
In the case of `CN(C)[C@@H]1C(O)=C(C(N)=O)C(=O)[C@@]2(O)C(O)=C3C(=O)c4c(O)cccc4[C@@](C)(O)[C@H]3C[C@@H]12` [Tetracycline], the “Diameter of zone of growth inhibition, E. Coli” value in the experiment on Escherichia coli (pre-made control disk 30 μg) turned out to be 21.4 mm. Further, the “Diameter of zone of growth inhibition, S. Aureus” value in the experiment on Staphylococcus aureus (pre-made control disk 30 μg) is 19.0 mm. Besides, the “Diameter of zone of growth inhibition, P. Aeriginosa” value in the experiment with Pseudomonas aeruginosa (pre-made control disk 30 μg) is reported as 12.3 mm. Also, the “Diameter of zone of growth inhibition, P. Hauseri” value in the experiment with Proteus hauseri (pre-made control disk 30 μg) is given as 15.9 mm. Moreover, the “Diameter of zone of growth inhibition, B. Cereus” value in the experiment with Bacillus cereus is on record as 23.4 mm.
On to Penicillin, for which the “Diameter of zone of growth inhibition, E. Coli” value in the experiment on Escherichia coli (pre-made control disk 10 μg) is given as 9.4 mm. Besides, in the experiment on Staphylococcus aureus (pre-made control disk 10 μg), the “Diameter of zone of growth inhibition, S. Aureus” value amounted to 16.9 mm. In the experiment on Proteus hauseri (pre-made control disk 10 μg), the “Diameter of zone of growth inhibition, P. Hauseri” value is 8.1 mm.
